In patent US11203582B2, “Benzamide derivatives for inhibiting endoplasmic reticulum (ER) stress” (The Board of Regents of the University of Oklahoma, priority 2017, dated 2021):
pEC50: −log10 of the molar value. Like-named read-outs stand apart in the source and are kept apart here.

Tests used:
Type in all cases: cell-based, rat
INS-1 cells = test: Cell survival assay, intracellular ATP (CellTiter-Glo), INS-1 cells treated with Tm
Experimental: A structure-activity-relationship (SAR) study was thus conducted to improve the weak potency of lead compound 1. Newly synthesized or commercially available compounds were tested for their β-cell-protective activity against ER stress in rat INS-1 β-cells. […] The maximum activities and the concentrations that reach half-maximal activity (EC50) of the compounds were evaluated by the degree of increase in viability of INS-1 cells co-treated with the compounds in the presence of Tm compared with Tm treatment alone. Maximum activity value in the tables is reported as % rescue from Tm (0.1 μg/mL)-induced reduction of cell viability. The values for Tm treatment alone and control (DMSO, without Tm) treatment are designated as 0% and 100%, respectively in all tables. EC50 values (the concentrations that reach half-maximal activity) for INS-1 cell viability were calculated with GraphPad Prism from the data of ten 2-fold serial titration points in all tables. All experiments were performed in triplicate in all tables.
INS-1 cells were cultured in RPMI 1640 (Corning, N.Y., USA) supplemented with 10% FBS (Atlanta Biologicals, Norcross, Ga.), HEPES (10 mM, Life Technologies, CA, USA), sodium pyruvate (1 mM, Corning), 2-mercaptoethanol (50 μM, Sigma, St Louis, Mo., USA) and antibiotics (100 UI/mL penicillin and 100 μg/mL streptomycin, Corning). βTC6 cells were cultured in DMEM (Corning) with 15% FBS, sodium pyruvate (1 mM, Corning), non-essential amino acids (1 mM, Thermo, Ill., USA), GlutaMAX (1 mM, Life Technologies) and antibiotics (100 UI/mL penicillin and 100 μg/mL streptomycin). All cells were grown at 37° C. in a humidified 5% CO2 atmosphere.
INS-1 cells or βTC6 cells were seeded at 3×10^3 cells/well in a 384-well plate and treated with compounds at the indicated concentrations. After 3 d treatment, the medium was aspirated and 20 μL/well of CellTiter-Glo reagent (Promega, WI, USA) was added for the detection of intracellular ATP levels. Cell viability was measured with an EnVision multilabel plate reader (PerkinElmer, MA, USA).

INS1 mRNA = test: qRT-PCR of INS1 mRNA in Tm-treated INS-1 cells; conditions: Tm co-treatment, 24 h
Experimental: (A-D) INS-1 cells were treated with or without Tm (0.1 m/mL) in the presence of 13d at indicated concentrations or DMSO for 24 h. The mRNA levels of INS1 (A), INS2 (B), PDX1 (C), and MafA (D), were analyzed by qRT-PCR. Relative mRNA levels were normalized against the housekeeping gene Cyclophilin A using the comparative CT method. The results are the means of 3 replicate wells and are representative of 3 independent experiments. * P<0.05 and ** P<0.01 compared with Tm treatment alone. Bars indicate SD. (E) Insulin secretion by INS-1 cells incubated with 1.7 mM and 20 mM glucose in the presence or absence of Tm (0.1 μg/mL) and 13d. Secreted insulin was measured by ELISA after 24 h treatment. * P<0.05. The amount of insulin secreted in response to 1.7 mM glucose in the absence of Tm was set to 1.0 and was normalized with total protein concentration.
(§1) INS-1 cells were seeded at 4×10^5 cells/well in 6-well plates and treated with compounds for the indicated times. […] Relative mRNA levels were normalized against the housekeeping gene Cyclophilin A and were determined by ΔΔCt calculated from the difference in ΔCt values between the target gene and Cyclophilin A with and without treatment, based on comparative CT (cycle threshold) method. […]

ATF4 mRNA = test: qRT-PCR of ATF4 mRNA in INS-1 cells
Experimental: (A, B) INS-1 cells were treated with or without Tm (0.1 μg/mL) in the presence of 13d or DMSO for 8 h. ATF4 (A) and CHOP (B) mRNA levels were analyzed by qRT-PCR. Relative mRNA levels were normalized against the housekeeping gene Cyclophilin A using the comparative CT method. The results were expressed as the fold-increase over mRNA levels in untreated control cells and are the means of 3 replicate wells and representative of 3 independent experiments. ** P<0.01 compared with Tm treatment alone. Bar indicates SD. (C-E) INS-1 cells were treated with or without Tm (0.1 μg/mL) in the presence of 13d or DMSO for 8 hATF4 and CHOP protein levels were determined by Western blotting (C). α-Tubulin was used as an internal control. Quantification of ATF4 (D) and CHOP (E) protein levels was analyzed by ImageJ program, which was normalized by α-Tubulin protein level. The data shown are representative of 3 independent experiments.
Having established that compound 13d restores ER stress-impaired β-cell survival and function, we next investigated the mechanism of action by which 13d protects β-cells against ER stress. Chronic or severe ER stress activates all three branches of the UPR, PERK, IRE1α, and ATF6, leading to eventual cell death. First, we determined the effect of 13d on the activation of the PERK pathway in β-cells under ER stress. […]

Bip mRNA = test: qRT-PCR of Bip mRNA in Tm-treated INS-1 cells; conditions: Tm 0.1 μg/mL co-treatment, 8 h
Experimental: INS-1 cells were treated with or without Tm (0.1 μg/mL) in the presence of 13d or DMSO for 8 h. Bip (A) and GRP94 (B) mRNA levels were analyzed by qRT-PCR. Relative mRNA levels were normalized against the housekeeping gene Cyclophilin A using the comparative CT method. The results are the means of 3 replicate wells and representative of 3 independent experiments. ** P<0.01 compared with Tm treatment alone. Error bars indicate SD.
We then investigated the effects of 13d on the activation of ATF6 in β-cells under ER stress. Activated ATF6 acts as a homodimer or as an ATF6-XBP1s heterodimer to control the up-regulation of select UPR target genes including the chaperone proteins BiP and GRP94. Therefore, these two chaperone proteins were evaluated in the INS-1 cells in the presence of Tm.
as §1, with “times. Total RNA was extracted using TRIzol reagent (Invitrogen, Carlsbad, Calif.) according to the manufacturer's protocol, and 2 μg of total RNA was reverse transcribed using a Superscript kit (Invitrogen).” for “times.”

## O=C(NCc1ccc(C(F)(F)F)cc1)c1cccc(CN2CCCCC2)c1 [Compound 13d, N-(4-trifluoromethylphenmethyl)-3-(N-piperidinyl)methyl benzamide]
INS-1 cells; INS-1 cells, Tm 0.1 μg/mL, 72 h, FIG. 2A
  range of concentrations retaining maximum β-cell-protective activity: 0.16 to 20 µM
INS-1 cells; INS-1 cells, Tm-induced ER stress
  maximum activity (β-cell-protective activity): ~100%
INS-1 cells; INS-1 cells, Tm-induced ER stress, read-out: EC50
  pEC50: 7.49
INS-1 cells; INS-1 cells, no Tm, 72 h, FIG. 2D
  effect of compound on its own on β-cell viability: no effect
INS-1 cells; Table 5, INS-1 cells, Tm 0.1 μg/mL, 72 h, Tm alone 0%, DMSO control 100%
  Maximum activity (% rescue): 97% ± 8%
INS-1 cells; Tm 0.1 μg/mL, 72 h, FIG. 2A
  viability of INS-1 β-cells under Tm treatment (intracellular ATP): rescued the viability of INS-1 β-cells under Tm treatment in a dose-dependent manner
INS-1 cells; running text b108, read-out: EC50 value against ER stress
  pEC50: ~7.52
INS1 mRNA
  Tm-suppressed INS1 mRNA level: completely rescued
ATF4 mRNA; Tm 0.1 μg/mL co-treatment, 8 h
  Tm-induced increase in ATF4 mRNA level: almost completely abolished
ATF4 mRNA; without Tm
  effect on ATF4 mRNA level on its own: no effect
Bip mRNA
  Tm-induced up-regulation of Bip mRNA: almost completely reversed
